Data taken from patent US20250092065A1, “2-(INDAZOL-5-YL)-6-(PIPERIDIN-4-YL)-1,7-NAPHTHYRIDINE DERIVATIVES AND RELATED COMPOUNDS AS MODULATORS FOR SPLICING NUCLEIC ACIDS AND FOR THE TREATMENT OF PROLIFERATIVE DISEASES” (REMIX THERAPEUTICS INC., priority 2022, published 2025).
Read-outs that look alike come from different tables or passages of the source.

Assays:
[1] = tested on: HTT mRNA; experiment: RT-qPCR splicing assay, HTT mRNA canonical (CJ) and alternative (AJ) junction; assay type: cell-based, human; conditions: Homo sapiens; for AC50: HTT alternative junction mRNA, read-out: HTT AJ (increase in AJ mRNA, AC50)
In short: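 A673 or K562 cells treated 24 h at 37 °C with an 11-point 3-fold dilution series (top 10 uM, DMSO ≤0.25%). Lysates went directly to one-step RT-qPCR quantifying canonical (CJ) and alternative-exon (AJ) junctions, normalized to GAPDH, GUSB or PPIA. Values from ΔΔCt versus DMSO, RQ = 2^(−ΔΔCt), expressed as percentage response.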

[2] = tested on: Target C; experiment: HiBiT protein abundance assay, Target C (K562 HiBiT knock-in); assay type: cell-based, human; conditions: HiBiT knock-in K562 cells, 24 hours, top dose 10 μM
In short: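 K562 HiBiT knock-in cells (10000/well) were treated 24 h at 37° C with a 10-point 3-fold dilution series (top 10 μM final, ≤0.25% DMSO). HiBiT luminescence was read after lytic LgBiT detection. Percent response used unmodified K562 and DMSO-treated knock-in controls, and IC50 came from a four-parameter fit at 50% of untreated.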

[3] = tested on: HTT; experiment: HiBiT protein abundance assay, HTT (K562 HiBiT knock-in); assay type: cell-based, human; conditions: HiBiT knock-in K562 cells, 24 hours, top dose 10 μM
In short: (§1)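 Luminescence readout: Nano-Glo HiBiT lytic detection after 24 h compound exposure of K562 HiBiT knock-in cells, 10000 cells/well. Dosing 10-pt, 3-fold, top 10 μM final. % response vs untreated parental K562 and DMSO controls; 4PL fit, IC50 = concentration giving 50% protein abundance.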

[4] = tested on: MYB; experiment: HiBiT protein abundance assay, MYB (K562 HiBiT knock-in); assay type: cell-based, human; conditions: HiBiT knock-in K562 cells, 24 hours, top dose 10 μM
In short: as §1

[5] = tested on: K562 cells; experiment: Cell Titer Glo 2.0 cell viability (toxicity) assay, K562; conditions: 500 cells/well, 72 hours
[6] = HTT canonical junction mRNA, RT-qPCR, read-out: HTT CJ (decrease in CJ mRNA levels, IC50)
[7] = canonical junction qPCR panel, Table 4, read-out: HTT IC50 (decrease in CJ mRNA levels)

Row | Compound | IC50 [1, 6] [µM] | IC50 [1, 7] [µM] | IC50 [2] [µM] | IC50 [3] [µM] | IC50 [4] [µM] | AC50 ([1]; RT-qPCR) [µM] | Effect of Exemplary Compounds on Cell Viability, K562 [5]
1 | Cc1c(O)c(-c2ncc3nc(C4CCNC4)ccc3n2)cc2cn(C)nc12 (centres unmarked) [Compound 397, 2,7-dimethyl-5-[6-(pyrrolidin-3-yl)pyrido[3,2-d]pyrimidin-2-yl]indazol-6-ol; trifluoroacetic acid] | 1 to 10 | 1 to 10 | 1 to 10 | 1 to 10 | 0.1 to 1 | 1 to 10 | B (B represents 100-1000 nM)
2 | Cc1c(O)c(-c2ncc3nc([C@H]4CCNC4)ccc3n2)cc2cn(C)nc12 [Compound 399] | > 10 | > 10 | > 10 | > 10 | 1 to 10 | > 10 | C (C represents 1000-9999 nM)
3 | Cn1cc2cc(-c3ncc4nc(C5CCNCC5)ccc4n3)c(O)c(C#N)c2n1 [Compound 403, 6-hydroxy-2-methyl-5-[6-(piperidin-4-yl)pyrido[3,2-d]pyrimidin-2-yl]indazole-7-carbonitrile; trifluoroacetic acid] | 0.1 to 1 | 0.1 to 1 | 0.1 to 1 | 0.1 to 1 | < 0.1 | 0.1 to 1 | B (B represents 100-1000 nM)
4 | Cn1cc2cc(-c3ccc4nc(N5CCC(NC(C)(C)C)C5)ncc4n3)c(O)cc2n1 (centres unmarked) [Compound 404, 5-{2-[3-(tert-butylamino)pyrrolidin-1-yl]pyrido[3,2-d]pyrimidin-6-yl}-2-methylindazol-6-ol] | < 0.1 | < 0.1 | < 0.1 | < 0.1 | 0.1 to 1 | < 0.1 | B (B represents 100-1000 nM)
5 | COc1cc(-c2ccc3nc(N4CCC(NC(C)(C)C)C4)ncc3n2)cnn1 (centres unmarked) [Compound 405, N-tert-butyl-1-[6-(6-methoxypyridazin-4-yl)pyrido[3,2-d]pyrimidin-2-yl]pyrrolidin-3-amine] | 1 to 10 | 1 to 10 | 1 to 10 | 1 to 10 | 1 to 10 | 1 to 10 | C (C represents 1000-9999 nM)
6 | CN[C@H]1CCN(c2ccc3nc(-c4cc(C#N)c5nc(C)cn5c4)ncc3n2)C1 [Compound 406, 2-methyl-6-{6-[(3S)-3-(methylamino)pyrrolidin-1-yl]pyrido[3,2-d]pyrimidin-2-yl}imidazo[1,2-a]pyridine-8-carbonitrile] | 0.1 to 1 | 0.1 to 1 | 1 to 10 | 1 to 10 | 0.1 to 1 | 1 to 10 | B (B represents 100-1000 nM)
7 | CN[C@@H]1CCN(c2ccc3nc(-c4cc(C#N)c5nc(C)cn5c4)ncc3n2)C1 [Compound 407, 2-methyl-6-{6-[(3R)-3-(methylamino)pyrrolidin-1-yl]pyrido[3,2-d]pyrimidin-2-yl}imidazo[1,2-a]pyridine-8-carbonitrile] | 0.1 to 1 | 0.1 to 1 | 1 to 10 | 0.1 to 1 | 0.1 to 1 | 1 to 10 | B (B represents 100-1000 nM)
8 | Cc1nc2cc(O)c(-c3ccc4nc(N5CCNCC5)ccc4n3)cc2o1 [Compound 408, 2-methyl-6-[6-(piperazin-1-yl)-1,5-naphthyridin-2-yl]-1,3-benzoxazol-5-ol] | 0.1 to 1 | 0.1 to 1 | 0.1 to 1 | 0.1 to 1 | 0.1 to 1 | 1 to 10 | B (B represents 100-1000 nM)
9 | Cc1nc2cc(O)c(-c3ccc4nc(N5CCN[C@@H](C)C5)ccc4n3)cc2o1 [Compound 409] | 0.1 to 1 | 0.1 to 1 | 0.1 to 1 | 0.1 to 1 | 0.1 to 1 | 0.1 to 1 | B (B represents 100-1000 nM)
10 | Cc1nc2cc(O)c(-c3ccc4nc(N5CCN6CCCC6C5)ccc4n3)cc2o1 (centres unmarked) [Compound 410] | 0.1 to 1 | 0.1 to 1 | 0.1 to 1 | 0.1 to 1 | 0.1 to 1 | 0.1 to 1 | B (B represents 100-1000 nM)
11 | Cc1nc2cc(O)c(-c3ccc4nc(N5CCNC6(CC6)C5)ccc4n3)cc2o1 [Compound 411] | 1 to 10 | 1 to 10 | 1 to 10 | 1 to 10 | 0.1 to 1 | > 10 | C (C represents 1000-9999 nM)
12 | Cc1nc2cc(O)c(-c3ccc4nc(N5CCC(NC(C)(C)C)CC5)ccc4n3)cc2o1 [Compound 412] | 0.1 to 1 | 0.1 to 1 | 0.1 to 1 | 0.1 to 1 | 0.1 to 1 | 0.1 to 1 | B (B represents 100-1000 nM)
13 | Cc1nc2cc(O)c(-c3ccc4nc(N5CC[C@@H](NC(C)(C)C)C5)ncc4n3)cc2o1 [Compound 413, 6-{2-[(3R)-3-(tert-butylamino)pyrrolidin-1-yl]pyrido[3,2-d]pyrimidin-6-yl}-2-methyl-1,3-benzoxazol-5-ol] | < 0.1 | < 0.1 | < 0.1 | < 0.1 | < 0.1 | < 0.1 | B (B represents 100-1000 nM)
14 | Cc1nc2cc(O)c(-c3ccc4nc(N5CC[C@H](NC(C)(C)C)C5)ncc4n3)cc2o1 [Compound 414, 6-{2-[(3S)-3-(tert-butylamino)pyrrolidin-1-yl]pyrido[3,2-d]pyrimidin-6-yl}-2-methyl-1,3-benzoxazol-5-ol] | < 0.1 | < 0.1 | 0.1 to 1 | 0.1 to 1 | 1 to 10 | 0.1 to 1 | B (B represents 100-1000 nM)

Second part, led by results:

Row | IC50 [1, 6] [µM] | IC50 [1, 7] [µM] | IC50 [2] [µM] | IC50 [3] [µM] | IC50 [4] [µM] | Compound | AC50 ([1]; RT-qPCR) [µM] | Effect of Exemplary Compounds on Cell Viability, K562 [5]
15 | < 0.1 | < 0.1 | < 0.1 | < 0.1 | < 0.1 | Cc1nc2c(C)c(O)c(-c3ccc4nc(N5CC[C@H](NC(C)C)C5)ncc4n3)cc2o1 [Compound 416, 6-{2-[(3S)-3-(isopropylamino)pyrrolidin-1-yl]pyrido[3,2-d]pyrimidin-6-yl}-2,4-dimethyl-1,3-benzoxazol-5-ol] | < 0.1 | A (A represents <100 nM)
16 | 0.1 to 1 | 0.1 to 1 | 1 to 10 | 0.1 to 1 | < 0.1 | Cc1nc2cc(O)c(-c3ccc4cc(N5CC[C@@H](NC(C)(C)C)C5)ncc4n3)cc2o1 [Compound 417] | 1 to 10 | B (B represents 100-1000 nM)
17 | 0.1 to 1 | 0.1 to 1 | 0.1 to 1 | 0.1 to 1 | 0.1 to 1 | Cc1nc2cc(O)c(-c3ccc4nc(N5CCN[C@@H](C6CC6)C5)ccc4n3)cc2o1 [Compound 418] | 0.1 to 1 | B (B represents 100-1000 nM)
18 | 0.1 to 1 | 0.1 to 1 | 0.1 to 1 | 0.1 to 1 | 0.1 to 1 | Cc1nc2cc(O)c(-c3ccc4nc(N5C[C@@H](C)N[C@@H](C6CC6)C5)ccc4n3)cc2o1 [Compound 419] | 0.1 to 1 | B (B represents 100-1000 nM)
19 | 0.1 to 1 | 0.1 to 1 | 0.1 to 1 | 0.1 to 1 | 0.1 to 1 | Cc1nc2cc(O)c(-c3ccc4nc(N5C[C@@H](C)N[C@@H](C)C5)ccc4n3)cc2o1 [Compound 420] | 1 to 10 | B (B represents 100-1000 nM)
20 | 0.1 to 1 | 0.1 to 1 | 0.1 to 1 | 0.1 to 1 | 0.1 to 1 | Cc1nc2cc(O)c(-c3ccc4nc(N5CCN[C@H](C6CC6)C5)ccc4n3)cc2o1 [Compound 421] | 0.1 to 1 | B (B represents 100-1000 nM)
21 | 0.1 to 1 | 0.1 to 1 | 0.1 to 1 | 0.1 to 1 | 0.1 to 1 | Cc1nc2cc(O)c(-c3ccc4nc(N5CCN[C@@H](C(C)C)C5)ccc4n3)cc2o1 [Compound 422] | 0.1 to 1 | B (B represents 100-1000 nM)
22 | 1 to 10 | 1 to 10 | 0.1 to 1 | 1 to 10 | 1 to 10 | Cc1nc2cc(O)c(-c3ccc4nc(N5CCC(N)CC5)ccc4n3)cc2o1 [Compound 424] | 1 to 10 | B (B represents 100-1000 nM)
23 | 1 to 10 | 1 to 10 | 1 to 10 | 1 to 10 | 1 to 10 | CNC1CCN(c2ccc3nc(-c4cc5oc(C)nc5cc4O)ccc3n2)CC1 [Compound 425] | 1 to 10 | B (B represents 100-1000 nM)
